What was measured:
Format in all cases: in vivo
[1] = test system: kochia (Kochia scoparia); assay: Test C postemergence, plant response rating; details: Bassia scoparia, post-emergence
Outline: (§1)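 After sowing in loam–sand blend or silt loam, pots were sprayed preemergence; separately grown 1- to 4-leaf plants were sprayed postemergence. Following 13 to 15 d under greenhouse conditions, injury was rated visually on a 0 to 100 scale.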

[2] = test system: barnyardgrass (Echinochloa crus-galli); assay: Test C postemergence, plant response rating; details: Echinochloa crus-galli, post-emergence
Outline: as §1

[3] = test system: ragweed (common ragweed, Ambrosia elatior); assay: Test C postemergence, plant response rating; details: Ambrosia artemisiifolia, post-emergence
Outline: as §1

[4] = test system: morningglory (Ipomoea coccinea); assay: Test C postemergence, plant response rating; details: Ipomoea, post-emergence
Outline: as §1

[5] = test system: velvetleaf (Abutilon theophrasti); assay: Test C postemergence, plant response rating; details: Abutilon theophrasti, post-emergence
Outline: as §1

[6] = test system: oilseed rape (Brassica napus); assay: Test C postemergence, plant response rating; details: Brassica napus, post-emergence
Outline: as §1

[7] = test system: giant foxtail (Setaria faberii); assay: Test A postemergence, visual injury rating; details: Setaria faberi, post-emergence, 240 h, 0 is no effect, 100 is complete control, read-out: Foxtail, Giant plant response rating (0 to 100 scale)
Outline: (§2)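 Compounds in non-phytotoxic solvent with surfactant applied as soil spray preemergence, or postemergence to plants 2-10 cm at one- to two-leaf stage, in loam/sand. After approximately 10 days in greenhouse, injury rated visually versus untreated controls, 0 (no effect) to 100 (complete control).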

[8] = test system: kochia (Kochia scoparia); assay: Test A postemergence, visual injury rating; details: Bassia scoparia, post-emergence, 240 h, 0 is no effect, 100 is complete control, read-out: Kochia plant response rating (0 to 100 scale)
Outline: as §2

[9] = test system: Italian ryegrass (Lolium multiflorum); assay: Test A postemergence, visual injury rating; details: Lolium multiflorum, post-emergence, 240 h, 0 is no effect, 100 is complete control, read-out: Ryegrass, Italian plant response rating (0 to 100 scale)
Outline: as §2

[10] = test system: ragweed (common ragweed, Ambrosia elatior); assay: Test A postemergence, visual injury rating; details: Ambrosia artemisiifolia, post-emergence, 240 h, 0 is no effect, 100 is complete control, read-out: Ragweed plant response rating (0 to 100 scale)
Outline: as §2

[11] = test system: wheat (Triticum aestivum); assay: Test A postemergence, visual injury rating; details: Triticum aestivum, post-emergence, 240 h, 0 is no effect, 100 is complete control, read-out: Wheat plant response rating (0 to 100 scale)
Outline: as §2

[12] = test system: corn (Zea mays); assay: Test A postemergence, visual injury rating; details: Zea mays, post-emergence, 240 h, 0 is no effect, 100 is complete control, read-out: Corn plant response rating (0 to 100 scale)
Outline: as §2

[13] = test system: pigweed (Amaranthus retroflexus); assay: Test A postemergence, visual injury rating; details: Amaranthus retroflexus, post-emergence, 240 h, 0 is no effect, 100 is complete control, read-out: Pigweed plant response rating (0 to 100 scale)
Outline: as §2

[14] = 62 g ai/ha, scale 0 to 100 (0 no effect, 100 complete control)
[15] = 125 g ai/ha, scale 0 to 100 (0 no effect, 100 complete control)

## O=C(OCCC(F)(F)F)c1c(Cl)cccc1Oc1ncc(Cl)cn1 [Compound 15, 3,3,3-trifluoropropyl 2-chloro-6-[(5-chloro-2-pyrimidinyl)oxy]benzoate]
[1]; 16 g ai/ha, scale 0 to 100
  pest or weed control at 16 g/ha: 90%
[1]; 31 g ai/ha, scale 0 to 100
  pest or weed control at 31 g/ha: 95%
[1]; [14]
  pest or weed control at 62 g/ha: 95%
[1]; [15]
  pest or weed control at 125 g/ha: 95%
[2]; 16 g ai/ha, scale 0 to 100
  pest or weed control at 16 g/ha: 20%
[2]; 31 g ai/ha, scale 0 to 100
  pest or weed control at 31 g/ha: 15%
[2]; [14]
  pest or weed control at 62 g/ha: 20%
[2]; [15]
  pest or weed control at 125 g/ha: 20%
[3]; 16 g ai/ha, scale 0 to 100
  pest or weed control at 16 g/ha: 30%
[3]; 31 g ai/ha, scale 0 to 100
  pest or weed control at 31 g/ha: 40%
[3]; [14]
  pest or weed control at 62 g/ha: 50%
[3]; [15]
  pest or weed control at 125 g/ha: 65%
[4]; 16 g ai/ha, scale 0 to 100
  pest or weed control at 16 g/ha: 65%
[4]; 31 g ai/ha, scale 0 to 100
  pest or weed control at 31 g/ha: 75%
[4]; [14]
  pest or weed control at 62 g/ha: 85%
[4]; [15]
  pest or weed control at 125 g/ha: 90%
[5]; 16 g ai/ha, scale 0 to 100
  pest or weed control at 16 g/ha: 50%
[5]; 31 g ai/ha, scale 0 to 100
  pest or weed control at 31 g/ha: 50%
[5]; 62 g ai/ha, scale 0 to 100 (0 no effect, 100 complete control), read-out: Velvetleaf plant response rating
  pest or weed control at 62 g/ha: 60%
[5]; [15]
  pest or weed control at 125 g/ha: 85%
[6]; 16 g ai/ha, scale 0 to 100
  plant injury at 16 g/ha: 45%
[6]; 31 g ai/ha, scale 0 to 100
  plant injury at 31 g/ha: 95%
[6]; [14]
  plant injury at 62 g/ha: 100%
[6]; [15]
  plant injury at 125 g/ha: 0%
[7]; 125 g ai/ha
  pest or weed control at 125 g/ha: 90%
[7]; 500 g ai/ha
  pest or weed control at 500 g/ha: 100%
[8]; 125 g ai/ha
  pest or weed control at 125 g/ha: 100%
[8]; 500 g ai/ha
  pest or weed control at 500 g/ha: 100%
[9]; 125 g ai/ha
  pest or weed control at 125 g/ha: 60%
[9]; 500 g ai/ha
  pest or weed control at 500 g/ha: 90%
[10]; 125 g ai/ha
  pest or weed control at 125 g/ha: 20%
[10]; 500 g ai/ha
  pest or weed control at 500 g/ha: 40%
[11]; 125 g ai/ha
  plant injury at 125 g/ha: 20%
[11]; 500 g ai/ha
  plant injury at 500 g/ha: 100%
[12]; 125 g ai/ha
  plant injury at 125 g/ha: 50%
[12]; 500 g ai/ha
  plant injury at 500 g/ha: 90%
[13]; 125 g ai/ha
  pest or weed control at 125 g/ha: 100%
[13]; 500 g ai/ha
  pest or weed control at 500 g/ha: 100%

— US11053204B2, “Pyrimidinyloxy benzene derivatives as herbicides” (FMC Corporation, priority 2015, dated 2021)
